Experimental data from ChEMBL document CHEMBL1201862, “PubChem BioAssay data set” (2004).
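Five compound concentrations were applied to cells in 96-well plates for 48 hours; endpoints were derived by simple linear interpolation of the resulting dose-response curve. GI50: concentration for 50% inhibition of growth.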 Active and inactive are the calls of the source. No stated cut-off is given here; in the data, active = GI50 up to about 1.1 µM and inactive = higher.

Experiments:
Experiment in all cases: NCI anticancer screen, dose series, 48 h
[1] = test system: A549
[2] = test system: DLD-1
[3] = test system: K562
[4] = test system: LOX IMVI
[5] = test system: OVCAR-3
[6] = test system: SK-MEL-5
[7] = test system: SN12C
[8] = test system: SNB-19
[9] = test system: SR
[10] = test system: U-251
[11] = test system: UACC-257
[12] = test system: UACC-62
[13] = test system: UO-31
[14] = test system: EKVX
[15] = test system: KM12
[16] = test system: DU-145
[17] = test system: MCF7
[18] = test system: MDA-MB-231
[19] = test system: RXF 393
[20] = test system: T47D

Structure (SMILES) | GI50 [1] | GI50 [2] | GI50 [3] | GI50 [4] | GI50 [5] | GI50 [6] | GI50 [7] | GI50 [8] | GI50 [9] | GI50 [10] | GI50 [11] | GI50 [12] | GI50 [13] | GI50 [14] | GI50 [15] | GI50 [16] | GI50 [17] | GI50 [18] | GI50 [19] | GI50 [20]
Cc1ccc(S(=O)(=O)OCC23CCC(C2)C2CC23)cc1 (configuration not stated) | > 100 µM (inactive) | > 100 µM (inactive) | > 100 µM (inactive) | > 100 µM (inactive) | > 100 µM (inactive) | > 100 µM (inactive) | > 100 µM (inactive) | > 100 µM (inactive) | > 100 µM (inactive) | > 100 µM (inactive) | 52.1 µM (inactive) | > 100 µM (inactive) | > 100 µM (inactive) | – | – | – | – | – | – | –
Cc1ccc(NC(=O)CCc2nc(N)nc(N)c2-c2ccccc2)cc1C | > 100 µM (inactive) | > 100 µM (inactive) | > 100 µM (inactive) | – | > 100 µM (inactive) | > 100 µM (inactive) | > 100 µM (inactive) | > 100 µM (inactive) | > 100 µM (inactive) | > 100 µM (inactive) | > 100 µM (inactive) | > 100 µM (inactive) | > 100 µM (inactive) | > 100 µM (inactive) | > 100 µM (inactive) | – | – | – | – | –
NC1NCCC(=O)N1CCc1c[nH]c2ccccc12 (configuration not stated) | 26.1 µM (inactive) | – | 22.4 µM (inactive) | 12.9 µM (inactive) | 20.9 µM (inactive) | 16.9 µM (inactive) | 27.2 µM (inactive) | 33.7 µM (inactive) | 29 µM (inactive) | 65.2 µM (inactive) | 17.8 µM (inactive) | 20.1 µM (inactive) | 41.6 µM (inactive) | 28.1 µM (inactive) | 15.5 µM (inactive) | 23.7 µM (inactive) | 15.5 µM (inactive) | 13.2 µM (inactive) | 22.8 µM (inactive) | 37.2 µM (inactive)
C[n+]1c2ccccc2n2c3ccccc3c(NCCCn3ccnc3)c(C#N)c21 | 3.92 µM (inactive) | – | 2.39 µM (inactive) | 1.49 µM (inactive) | 2.36 µM (inactive) | 3.09 µM (inactive) | 1.26 µM (inactive) | 4.01 µM (inactive) | 1.27 µM (inactive) | 2.18 µM (inactive) | 3.85 µM (inactive) | 2.74 µM (inactive) | 7.21 µM (inactive) | 4.78 µM (inactive) | 2.01 µM (inactive) | 2.77 µM (inactive) | 0.547 µM (active) | 2.65 µM (inactive) | 0.923 µM (active) | 1.61 µM (inactive)
N#C/C(=C\c1ccc(O)c(O)c1)c1c(C#N)c(N)nn1-c1ccccc1 | 10.1 µM (inactive) | 18.5 µM (inactive) | 3.94 µM (inactive) | 5.05 µM (inactive) | 2.04 µM (inactive) | 6.58 µM (inactive) | 10.3 µM (inactive) | 7.19 µM (inactive) | – | 5.36 µM (inactive) | 15.5 µM (inactive) | 3.81 µM (inactive) | 6.47 µM (inactive) | 7.45 µM (inactive) | 15.6 µM (inactive) | – | – | – | – | –
O=C(N/C(=C\c1ccc(/C=C(\NC(=O)c2ccccc2)c2nc3c(O)nc(S)nc3[nH]2)cc1)c1nc2c(O)nc(S)nc2[nH]1)c1ccccc1 | > 100 µM (inactive) | 64.9 µM (inactive) | 30.3 µM (inactive) | 38 µM (inactive) | > 100 µM (inactive) | 64.4 µM (inactive) | > 100 µM (inactive) | > 100 µM (inactive) | – | > 100 µM (inactive) | > 100 µM (inactive) | 34.3 µM (inactive) | > 100 µM (inactive) | > 100 µM (inactive) | > 100 µM (inactive) | – | – | – | 38.6 µM (inactive) | –
CC1=NN(c2nc(N)nc(/C(C#N)=C\c3ccc([N+](=O)[O-])s3)n2)C(C)(C)C1 | 0.887 µM (active) | – | < 0.0178 µM (active) | 0.157 µM (active) | 0.124 µM (active) | 0.625 µM (active) | 0.363 µM (active) | 1.66 µM (inactive) | 0.018 µM (active) | 0.104 µM (active) | 0.211 µM (active) | 0.861 µM (active) | 0.167 µM (active) | 0.817 µM (active) | 0.316 µM (active) | 0.24 µM (active) | 0.142 µM (active) | 0.22 µM (active) | 0.236 µM (active) | 0.0743 µM (active)
CC12O[C@H](c3ccccc3)[C@H](c3ccccc3)N1C(=O)C1(C(=O)OCc3ccccc3)CC12 (some centres not stated) | 22.3 µM (inactive) | 88.1 µM (inactive) | 37.3 µM (inactive) | > 100 µM (inactive) | > 100 µM (inactive) | 88.7 µM (inactive) | > 100 µM (inactive) | > 100 µM (inactive) | – | – | 59.8 µM (inactive) | > 100 µM (inactive) | 41.2 µM (inactive) | – | 91 µM (inactive) | – | – | – | – | –
O=C(Nn1cc(F)c(=O)[nH]c1=O)C12CC3CC(CC(C3)C1)C2 | 6.27 µM (inactive) | – | 14.6 µM (inactive) | 7.8 µM (inactive) | 10.4 µM (inactive) | 3.2 µM (inactive) | 11.5 µM (inactive) | 28.6 µM (inactive) | 4.05 µM (inactive) | 19.3 µM (inactive) | 22 µM (inactive) | 7.59 µM (inactive) | 8.2 µM (inactive) | 24 µM (inactive) | 6.27 µM (inactive) | 8.3 µM (inactive) | 5.22 µM (inactive) | 12.7 µM (inactive) | 16.4 µM (inactive) | 20.2 µM (inactive)
Nc1ccc2c(=S)c3ccccc3[nH]c2c1 | 23.3 µM (inactive) | – | 16.1 µM (inactive) | 26.4 µM (inactive) | 28.2 µM (inactive) | 33.5 µM (inactive) | > 77.6 µM (inactive) | 41.6 µM (inactive) | 25.1 µM (inactive) | 28.4 µM (inactive) | 44.5 µM (inactive) | 31.7 µM (inactive) | 27.9 µM (inactive) | 36.5 µM (inactive) | 44.4 µM (inactive) | > 72.1 µM (inactive) | 20.1 µM (inactive) | 28.2 µM (inactive) | 39.6 µM (inactive) | 20.1 µM (inactive)
COC(=O)C1(Cc2ccc3c(c2)CCC3)Cc2ccc3c(c2C1=O)CCC3 (configuration not stated) | 9.48 µM (inactive) | – | 3.37 µM (inactive) | 5.87 µM (inactive) | 4.26 µM (inactive) | 4.35 µM (inactive) | 12.2 µM (inactive) | 8.91 µM (inactive) | 2.55 µM (inactive) | 4.65 µM (inactive) | 8.65 µM (inactive) | 3.84 µM (inactive) | 10.6 µM (inactive) | 11.1 µM (inactive) | 4.12 µM (inactive) | 33.6 µM (inactive) | 3.43 µM (inactive) | 5.78 µM (inactive) | 2.11 µM (inactive) | 4.35 µM (inactive)
O=[N+]([O-])c1ccccc1/C=N/C12CC3CC(CC(C3)C1)C2 | > 100 µM (inactive) | 36.4 µM (inactive) | 29.8 µM (inactive) | 47.4 µM (inactive) | 32.3 µM (inactive) | 61.4 µM (inactive) | > 100 µM (inactive) | 49.9 µM (inactive) | – | > 100 µM (inactive) | > 100 µM (inactive) | > 100 µM (inactive) | > 100 µM (inactive) | > 100 µM (inactive) | 37.3 µM (inactive) | – | – | – | > 100 µM (inactive) | –
